Marks after values point to notes of the source that are not given here.
Tests used:
MOG-induced EAE = assay: MOG-induced EAE, lower doses of laquinimod with GA-blocking (Example 2.2); format: in vivo, C57B1/6 mice; details: GA-blocking 12.5 mg/kg in inoculum day 0
Procedure: MOG is a member of the immunoglobulin superfamily expressed exclusively in CNS myelin. It is one of the most encephalitogenic proteins and is widely used to induce EAE in different rodent strains. In C57BL/6 mice, immunization with the MOG peptide pMOG35-55 in CFA induces chronic progressive EAE.
24 mg MOG was diluted in 8 ml PBS (3 mg/ml, stock solution). Groups 1, 3 and 5: 3.5 ml of stock solution was diluted 1:1 with PBS. […] 4.5 ml of MOG stock solution was added to this solution.
The high dose LAQ (5 mg/10 ml/kg) solution (40 mg in 80 ml DDW) was prepared once weekly and stored at room temperature. For the dose of 2.5 mg/kg LAQ, 25 ml of this solution were added to 25 ml DDW. For the dose 1 mg/kg 5 ml of stock solution (high dose) were added to 20 ml DDW. The compound was administered by gavage once daily during the whole experiment (30 days) at a volume of 0.2 ml/mouse.
The mice were observed daily from the 9th day post-EAE induction (first injection of MOG) and the EAE clinical signs were scored according to the grades described in the 2 above.

MSCH-induced EAE [1] = assay: MSCH-induced EAE in CSJL mice (Example 2.7); format: in vivo, CSJL/F1 mice; details: GA blocking 0.5 mg/kg (sub-optimal dose), with encephalitogen
MSCH-induced EAE [2] = assay: MSCH-induced EAE in CSJL/F1 mice (Example 2.8); format: in vivo
Procedure: Disease was induced in all mice by the injection of the encephalitogenic emulsion (MSCH/CFA). The test articles and the vehicle were administered orally twice a day.
For groups 1 and 3 to 6, 360.0 mg MSCH was suspended in 3.0 ml PBS to yield 120 mg/ml MSCH suspension.
0.05 ml was injected into the left foot-pad of each mouse. The concentration of MSCH in emulsion in all groups was 60 mg/mL. The dose of the MSCH in all the groups was 3.0 mg/0.05 ml/mouse. The concentration of MT in emulsion in all groups was 0.25 mg/mL. The dose of the MT in all the groups was 0.0125 mg/0.05 ml/mouse.
36 μL Pertussis toxin (200 μg/ml) was added to 44.964 ml PBS to yield 160 ng/ml. The pertussis toxin was administered intravenous on the day of encephalitogen injection and 48 hours later (80.0 ng/0.5 ml/mouse).
Solutions at concentration of 0.001, 0.01, 0.03 and 0.1 mg/mL laquinimod were prepared in water for dose levels of 0.01, 0.1, 0.3 and 1.0 mg/kg respectively. The test formulations were stored at 2 to 8° C. until use in amber colored bottles.
The mice were administered with the respective dose levels of laquinimod at volume dose level of 200 μL/mouse. The test formulations were vortexed before dispensing in syringe.
The different dose levels laquinimod were administered to the respective groups once a day.
Scoring of EAE clinical signs was initiated from the 10th day post-EAE induction and was continued daily until Day 23. The clinical signs were recorded on observation cards according to a grading system described in the table 23 above. Animals with score 4 for more than three days were given score 5 and sacrificed for humane reasons. For calculation purposes, the score (5) of animals that are sacrificed or died were carried forward.
The calculations are as shown in Example 2.4.

[3] = GA 0.5 mg/kg (sub optimal) with encephalitogen
[4] = GA blocking 0.5 mg/kg (sub-optimal dose), with encephalitogen

L-glutamic acid polymer with L-alanine, L-lysine and L-tyrosine, acetate (salt) [GA]
% inhibition compared to Control (GMS) (MOG-induced EAE): 77.5% | Group Mean Score (MOG-induced EAE): 0.73*** | Incidence (MOG-induced EAE): 11/14 | Mean Disease Duration (MOG-induced EAE): 7.1*** days | Mean Maximal Score (MOG-induced EAE): 2.18*** | Mean Onset (MOG-induced EAE): 18.7*** days | % Inhibition 1 (incidence) (MSCH-induced EAE [1]): 30.0% | GMS % Inhibition 3 (MSCH-induced EAE [1]): 61.9% | GMS value (MSCH-induced EAE [1]): 1.6 ± 1.5 | Incidence (MSCH-induced EAE [1]): 7/10 | MMS % Inhibition 2 (MSCH-induced EAE [1]): 42.0% | MMS value (MSCH-induced EAE [1]): 2.9 ± 2.1 | Mean Duration (MSCH-induced EAE [1]): 5.8 ± 4.5 days | Mean Onset (MSCH-induced EAE [1]): 17.0 ± 4.9 days | Incidence (MSCH-induced EAE [2]; [3]): 4/11 | MMS (MSCH-induced EAE [2]; [3]): 1.1±15 | activity according to GMS (MSCH-induced EAE [2]; [3]): 79.4% | % Inhibition 1 (according to Incidence) (MSCH-induced EAE [2]; [4]): 60.0% | % Inhibition 2 (according to MMS) (MSCH-induced EAE [2]; [4]): 75.5% | % Inhibition 3 (according to GMS) (MSCH-induced EAE [2]; [4]): 79.4%( ) | GMS value (Group Mean Score) (MSCH-induced EAE [2]; [4]): 0.7 ± 1.0 | Incidence (MSCH-induced EAE [2]; [4]): 4/11 | MMS value (Mean Maximal Score) (MSCH-induced EAE [2]; [4]): 1.1 ± 1.5 | Mean Duration (MSCH-induced EAE [2]; [4]): 3.6 days | Onset (MSCH-induced EAE [2]; [4]): 20.4 days

— patent US20160038532A1, “Treatment of Multiple Sclerosis With Combination of Laquinimod and Glatiramer Acetate” (TEVA PHARMACEUTICAL INDUSTRIES, LTD., priority 2011, published 2016)
